Measured values as given in EP0348713A1, “(R,S)-3-(4-phenyl-1-piperazinyl)-1,2-propanediol salts” (DOTT. FORMENTI S.P.A. INDUSTRIA CHIMICA E FARMACEUTICA, priority 1988, dated 1990).
Counter-ions that a name gives are not always drawn.

Assay: colour stability in pharmaceutical formulations (undesired colors due to degradation products)
Assay type: physicochemical
Details: particularly suppositories
Source text: Said colors, due to degradation products, are evidenced also when using the hydrochloride, whereas they are completely removed when a salt according to the invention is used.

undesired colors occuring in the long run: evidenced
SMILES: OCC(O)CN1CCN(c2ccccc2)CC1 (stereo not shown) [hydrochloride]
